This passage reports IC50 results from ChEMBL document CHEMBL5126642, “Triazine-Based Covalent DNA-Encoded Libraries for Discovery of Covalent Inhibitors of Target Proteins” (ACS Med Chem Lett, 2022).

pIC50: −log10 of the molar value.

In assay [1] the target is Tyrosine-protein kinase BTK (Homo sapiens, UniProt Q06187). In words: Inhibition of BTK (unknown origin) using TK peptide as substrate incubated for 1 hr in presence of ATP by HTRF assay. A general note: In TR-FRET formats the signal depends on donor and acceptor labels being close together.
In assay [2] the target is T1, Tyrosine-protein kinase JAK3 (Homo sapiens, UniProt P52333).
T1 sequence (P52333 whole entry): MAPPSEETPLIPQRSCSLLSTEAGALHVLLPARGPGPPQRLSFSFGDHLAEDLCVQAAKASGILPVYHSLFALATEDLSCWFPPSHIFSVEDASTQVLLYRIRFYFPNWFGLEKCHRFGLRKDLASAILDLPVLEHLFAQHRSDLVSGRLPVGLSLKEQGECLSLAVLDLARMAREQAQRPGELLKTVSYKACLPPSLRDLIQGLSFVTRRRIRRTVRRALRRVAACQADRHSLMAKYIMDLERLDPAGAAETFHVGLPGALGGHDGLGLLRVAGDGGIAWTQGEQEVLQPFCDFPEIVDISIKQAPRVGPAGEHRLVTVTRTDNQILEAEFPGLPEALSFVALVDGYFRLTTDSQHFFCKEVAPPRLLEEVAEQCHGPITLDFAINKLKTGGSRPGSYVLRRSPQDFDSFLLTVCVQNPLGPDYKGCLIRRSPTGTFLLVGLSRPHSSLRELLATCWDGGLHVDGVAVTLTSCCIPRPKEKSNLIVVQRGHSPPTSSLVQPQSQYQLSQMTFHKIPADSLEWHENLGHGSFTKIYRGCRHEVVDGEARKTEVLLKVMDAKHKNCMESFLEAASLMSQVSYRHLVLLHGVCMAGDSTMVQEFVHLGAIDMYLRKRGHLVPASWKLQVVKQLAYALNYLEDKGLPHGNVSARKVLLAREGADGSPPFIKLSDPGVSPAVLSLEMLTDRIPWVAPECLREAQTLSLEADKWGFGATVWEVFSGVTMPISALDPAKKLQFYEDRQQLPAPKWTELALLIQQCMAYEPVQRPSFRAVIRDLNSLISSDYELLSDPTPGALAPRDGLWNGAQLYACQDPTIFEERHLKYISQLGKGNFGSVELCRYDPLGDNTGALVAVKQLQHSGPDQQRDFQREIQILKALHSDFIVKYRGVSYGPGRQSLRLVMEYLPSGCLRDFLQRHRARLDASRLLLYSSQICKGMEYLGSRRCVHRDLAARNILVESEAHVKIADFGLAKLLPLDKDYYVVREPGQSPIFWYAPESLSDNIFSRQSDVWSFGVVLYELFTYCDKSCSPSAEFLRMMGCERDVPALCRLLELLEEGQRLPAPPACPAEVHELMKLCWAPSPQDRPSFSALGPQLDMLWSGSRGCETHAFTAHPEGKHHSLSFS
In words: Inhibition of JAK3 (unknown origin) using TK peptide as substrate incubated for 1 hr in presence of ATP by HTRF assay.

For assay [3], the target named is Peptidyl-prolyl cis-trans isomerase NIMA-interacting 1 (Homo sapiens, UniProt Q13526). As to the kind of experiment: Inhibition of GST-tagged Pin1 (unknown origin) using Suc-AEPF-pNA peptide as substrate incubated for 3 hrs.

By pIC50 is commonly meant the IC50 on a negative log10 scale, so that one unit is a factor of ten.

Tyrosine-protein kinase BTK, sequence (Q06187 whole entry): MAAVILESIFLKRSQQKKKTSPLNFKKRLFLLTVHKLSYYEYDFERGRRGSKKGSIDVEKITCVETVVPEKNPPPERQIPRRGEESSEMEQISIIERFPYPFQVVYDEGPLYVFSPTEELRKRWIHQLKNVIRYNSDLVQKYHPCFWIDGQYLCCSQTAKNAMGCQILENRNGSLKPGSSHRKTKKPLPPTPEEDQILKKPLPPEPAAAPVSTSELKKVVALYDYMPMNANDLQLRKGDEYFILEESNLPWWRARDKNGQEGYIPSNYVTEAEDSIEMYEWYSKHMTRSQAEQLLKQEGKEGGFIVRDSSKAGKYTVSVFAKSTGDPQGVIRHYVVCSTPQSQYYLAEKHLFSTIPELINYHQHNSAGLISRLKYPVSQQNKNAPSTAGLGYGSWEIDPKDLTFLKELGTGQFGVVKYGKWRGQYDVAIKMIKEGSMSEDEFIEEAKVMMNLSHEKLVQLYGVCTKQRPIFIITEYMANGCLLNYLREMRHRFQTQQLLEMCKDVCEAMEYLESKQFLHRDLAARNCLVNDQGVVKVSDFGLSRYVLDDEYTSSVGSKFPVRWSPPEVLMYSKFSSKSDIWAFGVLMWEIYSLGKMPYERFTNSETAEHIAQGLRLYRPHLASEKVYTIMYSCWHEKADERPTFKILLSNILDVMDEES
Peptidyl-prolyl cis-trans isomerase NIMA-interacting 1, sequence (Q13526 whole entry): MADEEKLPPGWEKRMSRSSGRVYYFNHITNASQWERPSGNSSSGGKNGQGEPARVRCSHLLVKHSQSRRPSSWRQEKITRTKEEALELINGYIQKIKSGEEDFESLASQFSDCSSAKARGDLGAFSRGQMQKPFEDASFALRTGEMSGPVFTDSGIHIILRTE

Take `CNc1nc(NCc2cccc(NC(=O)CCl)c2)nc(Nc2cc(C(C)(C)C)[nH]n2)n1`: the results for the pIC50 in assay [1] and in assay [2] were 5.72 and 8.05, respectively. Turning to `CNc1nc(Nc2ccc3cn[nH]c3c2)nc(N2CC3CC2CN3C(=O)CCl)n1` (stereo not given), the pIC50 in assay [3] is 5.77. In the case of `CNc1nc(NCC(NC(=O)CCl)c2ccccc2)nc(Nc2cc(C(C)(C)C)[nH]n2)n1` (stereo not given), the pIC50 in assay [1] was 6.20; in assay [2], 7.49. The matching figures for `C=CC(=O)N1CC2CC1CN2c1nc(NC)nc(Nc2cc[nH]n2)n1` (stereo not given): 7.79 and 6.16.

`CNc1nc(NC(c2ccccc2)c2cccc(S(C)(=O)=O)c2)nc(N2CCN(C(=O)CCl)CC2)n1` (stereo not given) had a pIC50 in assay [3] of 5.49. Regarding `C=CC(=O)Nc1cccc(CNc2nc(NC)nc(Nc3cc(C(C)(C)C)[nH]n3)n2)c1`, the pIC50 is 7.01 in assay [1] and 8.21 in assay [2].
